# Active and inactive are the calls of the source. How the calls were made is not given here. Residues, ends and D or L forms follow the SMILES beside them.
# Target: T1, Aurora kinase A (Homo sapiens) (UniProt O14965)
# T1 sequence (whole entry): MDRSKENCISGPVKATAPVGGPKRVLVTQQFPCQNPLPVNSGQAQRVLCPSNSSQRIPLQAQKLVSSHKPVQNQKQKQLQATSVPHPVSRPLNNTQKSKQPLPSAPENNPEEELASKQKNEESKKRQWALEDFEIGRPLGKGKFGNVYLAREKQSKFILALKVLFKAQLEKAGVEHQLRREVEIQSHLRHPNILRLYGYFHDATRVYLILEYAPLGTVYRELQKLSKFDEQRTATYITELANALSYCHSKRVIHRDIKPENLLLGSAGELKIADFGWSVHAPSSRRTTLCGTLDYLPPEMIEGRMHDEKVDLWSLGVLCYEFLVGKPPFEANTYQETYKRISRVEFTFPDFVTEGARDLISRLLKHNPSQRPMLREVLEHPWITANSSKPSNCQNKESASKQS
# Test: Binding affinity to GST-tagged Aurora A after 1 hr by ELISA
row,Compound,Activity
1,H-AELAALEAELAALEGRSEDPVCSWGKLAALKAKLAALKA-OH,Active
2,H-AELAALEAELAALEGSRRMWNAYEGKLAALKAKLAALKA-OH,Active
3,H-AELAALEAELAALEGWLIELLWIVGKLAALKAKLAALKA-OH,Active
4,H-AELAALEAELAPLEGYVSAGSQLWDGKLAALKAKLAALKA-OH,Active
5,CC[C@H](C)[C@H](NC(=O)[C@H](CCCNC(=N)N)NC(=O)[C@H](CCCNC(=N)N)NC(=O)[C@H](CO)NC(=O)[C@H](C)NC(=O)CNC(=O)[C@H](CCC(=O)O)NC(=O)[C@H](CC(C)C)NC(=O)[C@H](C)NC(=O)[C@H](C)NC(=O)[C@H](CC(C)C)NC(=O)[C@H](CCC(=O)O)NC(=O)[C@H](C)NC(=O)[C@H](CCC(=O)O)NC(=O)[C@@H]1CCCN1C(=O)[C@H](C)NC(=O)[C@H](C)NC(=O)[C@H](CC(C)C)NC(=O)[C@H](CCC(=O)O)NC(=O)[C@@H](C)N)C(=O)N[C@@H](CS)C(=O)N[C@@H](CS)C(=O)N[C@@H](CO)C(=O)N[C@@H](Cc1c[nH]c2ccccc12)C(=O)NCC(=O)N[C@@H](CCCCN)C(=O)N[C@@H](CC(C)C)C(=O)N[C@@H](C)C(=O)N[C@@H](C)C(=O)N[C@@H](CC(C)C)C(=O)N[C@@H](CCCCN)C(=O)N[C@@H](C)C(=O)N[C@@H](CCCCN)C(=O)N[C@@H](CC(C)C)C(=O)N[C@@H](C)C(=O)N[C@@H](C)C(=O)N[C@@H](CC(C)C)C(=O)N[C@@H](CCCCN)C(=O)N[C@@H](C)C(=O)O,Active
6,H-AELAALEAELAALEGRDQVMWFLHGKLAALKAKLAALKA-OH,Active
7,H-AELAALEAELAALEGGSPRWYELLGKLAALKAKLAALKA-OH,Active
8,H-AELAALEAELAALEGGLSEVHGLSGKLAALKAKLAALKA-OH,Active
9,CSCC[C@H](NC(=O)[C@@H]1CCCN1C(=O)[C@H](CCC(N)=O)NC(=O)[C@H](CO)NC(=O)CNC(=O)[C@H](Cc1c[nH]c2ccccc12)NC(=O)CNC(=O)[C@H](CCC(=O)O)NC(=O)[C@H](CC(C)C)NC(=O)[C@H](C)NC(=O)[C@H](C)NC(=O)[C@H](CC(C)C)NC(=O)[C@H](CCC(=O)O)NC(=O)[C@H](C)NC(=O)[C@H](CCC(=O)O)NC(=O)[C@H](CC(C)C)NC(=O)[C@H](C)NC(=O)[C@H](C)NC(=O)[C@H](CC(C)C)NC(=O)[C@H](CCC(=O)O)NC(=O)[C@@H](C)N)C(=O)N[C@@H](CC(=O)O)C(=O)N[C@@H](CO)C(=O)N[C@H](C(=O)NCC(=O)N[C@@H](CCCCN)C(=O)N[C@@H](CC(C)C)C(=O)N[C@@H](C)C(=O)N[C@@H](C)C(=O)N[C@@H](CC(C)C)C(=O)N[C@@H](CCCCN)C(=O)N[C@@H](C)C(=O)N[C@@H](CCCCN)C(=O)N[C@@H](CC(C)C)C(=O)N[C@@H](C)C(=O)N[C@@H](C)C(=O)N[C@@H](CC(C)C)C(=O)N[C@@H](CCCCN)C(=O)N[C@@H](C)C(=O)O)C(C)C,Active
10,H-AELAALEAELAALEGGTKMWSLLVDGKLAALKAKLAALKA-OH,Active
11,H-AELAALEAELAALEGNISRFWVLAGKLAALKAKLAALKA-OH,Active
12,H-AELAALEAELAALEGWVQVAQKVRGKLAALKAKLAALKA-OH,Active
13,H-AELAALEAELAALEGGYERRGWGVTGKLAALKAKLAALKA-OH,Active
14,H-AELAALEAELAALEGKGTQMWWLLGKLAALKAKLAALKA-OH,Active
15,H-AELAALEAELAALEGQGRADMSILGKLAALKAKLAALKA-OH,Active
16,H-AELAALEAELAALEGWVGMREVWRGKLAALKAKLAALKA-OH,Active
17,H-AELAALEAELAALEGSRNQMYWLYGKLAALKAKLAALKA-OH,Active
18,H-AELAALEAELAALEGAPCLVMTTAGKLAALKAKLAALKA-OH,Active
19,H-AELAALEAELAALEGQVGSTRLLSGKLAALKAKLAALKA-OH,Active

row,Compound,Activity
1,CSCC[C@H](NC(=O)[C@@H]1CCCN1C(=O)[C@H](CCC(N)=O)NC(=O)[C@@H]1CCCN1C(=O)CNC(=O)[C@H](CCC(=O)O)NC(=O)[C@H](CC(C)C)NC(=O)[C@H](C)NC(=O)[C@H](C)NC(=O)[C@H](CC(C)C)NC(=O)[C@H](CCC(=O)O)NC(=O)[C@H](C)NC(=O)[C@H](CCC(=O)O)NC(=O)[C@H](CC(C)C)NC(=O)[C@H](C)NC(=O)[C@H](C)NC(=O)[C@H](CC(C)C)NC(=O)[C@H](CCC(=O)O)NC(=O)[C@@H](C)N)C(=O)N[C@@H](Cc1c[nH]c2ccccc12)C(=O)NCC(=O)N[C@@H](CO)C(=O)N[C@@H](Cc1c[nH]c2ccccc12)C(=O)N[C@@H](CCCNC(=N)N)C(=O)NCC(=O)N[C@@H](CCCCN)C(=O)N[C@@H](CC(C)C)C(=O)N[C@@H](C)C(=O)N[C@@H](C)C(=O)N[C@@H](CC(C)C)C(=O)N[C@@H](CCCCN)C(=O)N[C@@H](C)C(=O)N[C@@H](CCCCN)C(=O)N[C@@H](CC(C)C)C(=O)N[C@@H](C)C(=O)N[C@@H](C)C(=O)N[C@@H](CC(C)C)C(=O)N[C@@H](CCCCN)C(=O)N[C@@H](C)C(=O)O,Active
2,CC(C)C[C@H](NC(=O)[C@H](C)NC(=O)[C@H](C)NC(=O)[C@H](CC(C)C)NC(=O)[C@H](CCC(=O)O)NC(=O)[C@H](C)NC(=O)[C@H](CCC(=O)O)NC(=O)[C@H](CC(C)C)NC(=O)[C@H](C)NC(=O)[C@H](C)NC(=O)[C@H](CC(C)C)NC(=O)[C@H](CCC(=O)O)NC(=O)[C@@H](C)N)C(=O)N[C@@H](CCC(=O)O)C(=O)NCC(=O)N[C@@H](CCCNC(=N)N)C(=O)N1CCC[C@H]1C(=O)N[C@@H](Cc1ccccc1)C(=O)N[C@@H](Cc1c[nH]c2ccccc12)C(=O)N[C@@H](CC(C)C)C(=O)N[C@@H](CC(=O)O)C(=O)N[C@@H](CCCNC(=N)N)C(=O)N[C@@H](CC(C)C)C(=O)N[C@@H](CC(C)C)C(=O)NCC(=O)N[C@@H](CCCCN)C(=O)N[C@@H](CC(C)C)C(=O)N[C@@H](C)C(=O)N[C@@H](C)C(=O)N[C@@H](CC(C)C)C(=O)N[C@@H](CCCCN)C(=O)N[C@@H](C)C(=O)N[C@@H](CCCCN)C(=O)N[C@@H](CC(C)C)C(=O)N[C@@H](C)C(=O)N[C@@H](C)C(=O)N[C@@H](CC(C)C)C(=O)N[C@@H](CCCCN)C(=O)N[C@@H](C)C(=O)O,Active
3,H-AELAALEAELAALEGSGMLAHFSWGKLAALKAKLAALKA-OH,Active
4,H-AELAALEAELAALEGLVMGVKAFLGKLAALKAKLAALKA-OH,Active
5,CC(C)C[C@H](NC(=O)[C@H](C)NC(=O)[C@H](C)NC(=O)[C@H](CC(C)C)NC(=O)[C@H](CCC(=O)O)NC(=O)[C@H](C)NC(=O)[C@H](CCC(=O)O)NC(=O)[C@H](CC(C)C)NC(=O)[C@H](C)NC(=O)[C@H](C)NC(=O)[C@H](CC(C)C)NC(=O)[C@H](CCC(=O)O)NC(=O)[C@@H](C)N)C(=O)N[C@@H](CCC(=O)O)C(=O)NCC(=O)N[C@H](C(=O)N[C@@H](CC(C)C)C(=O)N[C@H](C(=O)N[C@H](C(=O)N[C@@H](CO)C(=O)N[C@@H](Cc1c[nH]c2ccccc12)C(=O)N[C@@H](CC(=O)O)C(=O)N1CCC[C@H]1C(=O)N[C@@H](Cc1c[nH]c2ccccc12)C(=O)NCC(=O)N[C@@H](CCCCN)C(=O)N[C@@H](CC(C)C)C(=O)N[C@@H](C)C(=O)N[C@@H](C)C(=O)N[C@@H](CC(C)C)C(=O)N[C@@H](CCCCN)C(=O)N[C@@H](C)C(=O)N[C@@H](CCCCN)C(=O)N[C@@H](CC(C)C)C(=O)N[C@@H](C)C(=O)N[C@@H](C)C(=O)N[C@@H](CC(C)C)C(=O)N[C@@H](CCCCN)C(=O)N[C@@H](C)C(=O)O)C(C)C)C(C)C)[C@H](C)O,Active
6,H-AELAALEAELAALEGSQDNARSLWGKLAALKAKLAALKA-OH,Active
7,H-AELAALEAELAALEGLEGKSMGFIGKLAALKAKLAALKA-OH,Active
8,H-AELAALEAELAALEGGKVAAWGFWGKLAALKAKLAALKA-OH,Active
9,H-AELAALEAELAALEGQLWMLNTILGKLAALKAKLAALKA-OH,Active
10,H-AELAALEAELAALEGDVAVAVRWDGKLAALKAKLAALKA-OH,Active
11,H-AELAALEAELAALEGMRDWLIIGFGKLAALKAKLAALKA-OH,Active
12,H-AELAALEAELAALEGRRAVWPFGFGKLAALKAKLAALKA-OH,Active
13,H-AELAALEAELAALEGARSLVAQMTGKLAALKAKLAALKA-OH,Active
14,H-AELAALEAELAALEGLQQVLSYIFGKLAALKAKLAALKA-OH,Active
15,H-AELAALEAELAALEGSGAWMGSLLGKLAALKAKLAALKA-OH,Active
16,H-AELAALEAELAALEGFPGRFGLFVGKLAALKAKLAALKA-OH,Active
17,H-AELAALEAELAALEGWRRRLNNWWGKLAALKAKLAALKA-OH,Active
18,CC(C)C[C@H](NC(=O)[C@H](C)NC(=O)[C@H](C)NC(=O)[C@H](CC(C)C)NC(=O)[C@H](CCC(=O)O)NC(=O)[C@H](C)NC(=O)[C@H](CCC(=O)O)NC(=O)[C@H](CC(C)C)NC(=O)[C@H](C)NC(=O)[C@H](C)NC(=O)[C@H](CC(C)C)NC(=O)[C@H](CCC(=O)O)NC(=O)[C@H](C)N)C(=O)N[C@@H](CCC(=O)O)C(=O)NCC(=O)N[C@@H](CS)C(=O)N[C@H](C(=O)N[C@@H](CO)C(=O)N[C@H](C(=O)N[C@@H](Cc1ccc(O)cc1)C(=O)N[C@@H](CS)C(=O)N[C@H](C(=O)N[C@H](C(=O)N[C@@H](CO)C(=O)NCC(=O)N[C@@H](CCCCN)C(=O)N[C@@H](CC(C)C)C(=O)N[C@@H](C)C(=O)N[C@@H](C)C(=O)N[C@@H](CC(C)C)C(=O)N[C@@H](CCCCN)C(=O)N[C@@H](C)C(=O)N[C@@H](CCCCN)C(=O)N[C@@H](CC(C)C)C(=O)N[C@@H](C)C(=O)N[C@@H](C)C(=O)N[C@@H](CC(C)C)C(=O)N[C@@H](CCCCN)C(=O)N[C@@H](C)C(=O)O)C(C)C)[C@@H](C)O)C(C)C)[C@@H](C)O (H-AELAALEAELAALEGCTSVYCTVSGKLAALKAKLAALKA-OH),Active
19,H-AELAALEAELAALEGSVAQLGLLLGKLAALKAKLAALKA-OH,Active
